Columns and labels:
[1] = test system: patients with PAH (WHO Group 1); experiment: ARIES-1 12-week placebo-controlled study; assay type: in vivo, human; details: for Mean change from baseline in 6-minute walk distance / Placebo-adjusted mean change from baseline in 6-minute walk distance / Placebo-adjusted median change from baseline in 6-minute walk distance: 12 weeks; for Mean change from baseline in 6-minute walk distance: mean ± SD
Procedure: Two 12-week, randomized, double-blind, placebo-controlled, multicenter studies were conducted in 393 patients with PAH (WHO Group 1). The two studies were identical in design except for the doses of ambrisentan and the geographic region of the investigational sites. ARIES-1 (Ambrisentan in Pulmonary Arterial Hypertension, Randomized, Double-Blind, Placebo-Controlled, Multicenter, Efficacy Studies) compared once-daily doses of 5 mg and 10 mg ambrisentan to placebo, while ARIES-2 compared once-daily doses of 2.5 mg and 5 mg ambrisentan to placebo. In both studies, ambrisentan or placebo was added to current therapy, which could have included a combination of anticoagulants, diuretics, calcium channel blockers, or digoxin, but not epoprostenol, treprostinil, iloprost, bosentan, or sildenafil. The primary study endpoint was 6-minute walk distance. In addition, clinical worsening, WHO functional class, dyspnea, and SF-36® Health Survey were assessed.
Patients had idiopathic or heritable PAH (64%) or PAH associated with connective tissue diseases (32%), HIV infection (3%), or anorexigen use (1%). There were no patients with PAH associated with congenital heart disease.
Patients had WHO functional class I (2%), II (38%), III (55%), or IV (5%) symptoms at baseline. The mean age of patients was 50 years, 79% of patients were female, and 77% were Caucasian.
Clinical Worsening: Time to clinical worsening of PAH was defined as the first occurrence of death, lung transplantation, hospitalization for PAH, atrial septostomy, study withdrawal due to the addition of other PAH therapeutic agents or study withdrawal due to early escape. Early escape was defined as meeting two or more of the following criteria: a 20% decrease in the 6-minute walk distance; an increase in WHO functional class; worsening right ventricular failure; rapidly progressing cardiogenic, hepatic, or renal failure; or refractory systolic hypotension.

[2] = all clinical trials combined; cited from earlier work
[3] = molecular target: T1, multidrug resistance protein 2 (MRP2) (Homo sapiens, UniProt Q92887); experiment: Inhibition of hepatic transporter MRP2, transfected Sf9 cells; assay type: cell-based
T1 construct: expressed in transfected cells; host or cells: Spodoptera frugiperda (Sf9) ovarian cells
Procedure: Inhibition constants (IC50) were measured for human bile salt export pump (BSEP), sodium taurocholate cotransporting polypeptide (NTCP), multidrug resistance protein 2 (MRP2), P-glycoprotein (Pgp), breast cancer resistance protein (BCRP), organic anion-transporting polypeptide 1B1 (OATP1B1), and OATP1B3 in transfected cell-lines. Known inhibitors were used as positive controls.

[4] = ARIES-1, ambrisentan N = 134, 12-week treatment, intention-to-treat

T1 sequence (Q92887 whole entry): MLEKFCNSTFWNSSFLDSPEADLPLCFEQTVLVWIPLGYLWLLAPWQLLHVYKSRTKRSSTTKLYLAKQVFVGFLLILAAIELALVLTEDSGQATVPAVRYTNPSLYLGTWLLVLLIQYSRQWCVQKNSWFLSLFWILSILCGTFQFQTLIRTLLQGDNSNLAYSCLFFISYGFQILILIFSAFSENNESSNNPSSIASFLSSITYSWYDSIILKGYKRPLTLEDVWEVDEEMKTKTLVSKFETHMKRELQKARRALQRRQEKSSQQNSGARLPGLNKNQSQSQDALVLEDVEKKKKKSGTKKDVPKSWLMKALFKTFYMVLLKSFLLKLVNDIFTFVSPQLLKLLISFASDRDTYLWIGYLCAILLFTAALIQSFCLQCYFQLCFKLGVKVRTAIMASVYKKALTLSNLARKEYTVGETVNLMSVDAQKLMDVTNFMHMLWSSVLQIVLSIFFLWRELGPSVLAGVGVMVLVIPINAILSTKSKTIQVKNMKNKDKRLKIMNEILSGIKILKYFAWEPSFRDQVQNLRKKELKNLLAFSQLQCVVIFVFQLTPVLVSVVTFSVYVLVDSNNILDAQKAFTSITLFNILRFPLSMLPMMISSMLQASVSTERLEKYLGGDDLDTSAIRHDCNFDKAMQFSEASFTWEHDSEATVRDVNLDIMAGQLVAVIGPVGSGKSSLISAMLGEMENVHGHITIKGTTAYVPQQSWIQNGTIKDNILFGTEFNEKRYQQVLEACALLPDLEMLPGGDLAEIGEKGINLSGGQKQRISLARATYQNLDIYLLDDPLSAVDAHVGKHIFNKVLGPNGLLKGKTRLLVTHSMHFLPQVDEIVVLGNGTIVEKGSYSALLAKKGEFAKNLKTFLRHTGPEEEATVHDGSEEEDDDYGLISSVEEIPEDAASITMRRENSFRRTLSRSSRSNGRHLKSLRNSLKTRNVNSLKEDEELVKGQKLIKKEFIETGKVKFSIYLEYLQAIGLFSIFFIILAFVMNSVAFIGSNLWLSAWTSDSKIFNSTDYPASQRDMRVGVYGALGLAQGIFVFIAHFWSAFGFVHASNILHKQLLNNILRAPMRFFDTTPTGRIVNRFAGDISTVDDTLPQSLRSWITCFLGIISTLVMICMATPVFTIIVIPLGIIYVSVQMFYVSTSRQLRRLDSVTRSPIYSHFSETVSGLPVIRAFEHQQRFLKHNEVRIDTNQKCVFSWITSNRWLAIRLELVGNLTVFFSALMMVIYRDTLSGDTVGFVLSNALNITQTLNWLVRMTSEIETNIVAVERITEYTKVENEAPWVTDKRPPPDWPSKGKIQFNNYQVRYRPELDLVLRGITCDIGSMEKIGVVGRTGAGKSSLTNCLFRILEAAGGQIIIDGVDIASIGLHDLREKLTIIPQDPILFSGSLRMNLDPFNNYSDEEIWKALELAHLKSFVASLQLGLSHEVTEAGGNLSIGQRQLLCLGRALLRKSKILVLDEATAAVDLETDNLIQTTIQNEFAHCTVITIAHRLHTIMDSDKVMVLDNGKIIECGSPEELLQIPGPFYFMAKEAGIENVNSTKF

IC50 [3] [µM] | Structure (SMILES) | Mean change from baseline in 6-minute walk distance ([1]; ARIES-1, 5 mg once daily (N = 67)) [meters] | Placebo-adjusted mean change from baseline in 6-minute walk distance ([1]; ARIES-1, 5 mg) [meters] | Placebo-adjusted median change from baseline in 6-minute walk distance ([1]; ARIES-1, 5 mg) [meters] | Mean change from baseline in 6-minute walk distance ([1]; ARIES-1, 10 mg once daily (N = 67)) [meters] | Placebo-adjusted mean change from baseline in 6-minute walk distance ([1]; ARIES-1, 10 mg) [meters] | Placebo-adjusted median change from baseline in 6-minute walk distance ([1]; ARIES-1, 10 mg) [meters] | Clinical worsening, % [1, 4] [%] | Clinical worsening, no. [1, 4] | Time to clinical worsening, hazard ratio ([1]; ARIES-1, versus placebo) | 1-year risk of significant aminotransferase abnormalities [2] [%]
– | COC(c1ccccc1)(c1ccccc1)[C@H](Oc1nc(C)cc(C)n1)C(=O)O [Ambrisentan, (25)-2-[(4,6-dimethylpyrimidin-2-yl)oxy]-3-methoxy-3,3-diphenylpropanoic acid] | 23 ± 83 | 31 | 27 | 44 ± 63 | 51 | 39 | 3 | 4 | 0.28 | < 3
> 100 | COc1ccccc1Oc1c(NS(=O)(=O)c2ccc(C(C)(C)C)cc2)nc(-c2ncccn2)nc1OCCO [Bosentan] | – | – | – | – | – | – | – | – | – | –

From patent US20140275094A1, “METHOD FOR TREATING PULMONARY ARTERIAL HYPERTENSION IN A PATIENT NOT HAVING IDIOPATHIC PULMONARY FIBROSIS” (GILEAD SCIENCES, INC., priority 2012, published 2014)
